Common to all, as to test: relative viability (nuclei count vs DMSO), 5 days (fraction); higher = more cells survive
Compound in the assay “Bleomycin + Navitoclax”: CC1=C(N=C(N=C1N)[C@H](CC(=O)N)NC[C@@H](C(=O)N)N)C(=O)N[C@@H]([C@H](C2=CN=CN2)OC3C(C(C(C(O3)CO)O)O)OC4C(C(C(C(O4)CO)O)OC(=O)N)O)C(=O)N[C@H](C)[C@H]([C@H](C)C(=O)N[C@@H]([C@@H](C)O)C(=O)NCCC5=NC(=CS5)C6=NC(=CS6)C(=O)NCCC[S+](C)C)O [Bleomycin] + CC1(C)CCC(c2ccc(Cl)cc2)=C(CN2CCN(c3ccc(C(=O)NS(=O)(=O)c4ccc(N[C@H](CCN5CCOCC5)CSc5ccccc5)c(S(=O)(=O)C(F)(F)F)c4)cc3)CC2)C1 [Navitoclax] (partner 0.5 µM)
Particulars: main component drawn. The method in brief: (§1)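 Values are medians from duplicate plates. Each reflects relative viability, defined as the nuclei count of treated wells over that of vehicle wells. Lung cancer cell lines in 1536-well plates were pin-tool dosed one day after seeding with one drug alone or with a fixed anchor-drug dose plus five library-drug doses (not always all listed) in √10 steps, then fixed, stained and imaged at 4× after 5 days.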

Compound in the assay “Bleomycin + Pictilisib”: CC1=C(N=C(N=C1N)[C@H](CC(=O)N)NC[C@@H](C(=O)N)N)C(=O)N[C@@H]([C@H](C2=CN=CN2)OC3C(C(C(C(O3)CO)O)O)OC4C(C(C(C(O4)CO)O)OC(=O)N)O)C(=O)N[C@H](C)[C@H]([C@H](C)C(=O)N[C@@H]([C@@H](C)O)C(=O)NCCC5=NC(=CS5)C6=NC(=CS6)C(=O)NCCC[S+](C)C)O [Bleomycin] + CS(=O)(=O)N1CCN(Cc2cc3nc(-c4cccc5[nH]ncc45)nc(N4CCOCC4)c3s2)CC1 [Pictilisib] (partner 1 µM)
The following applies: main component drawn. In a few lines: as §1

Compound in the assay “Bleomycin + Olaparib”: CC1=C(N=C(N=C1N)[C@H](CC(=O)N)NC[C@@H](C(=O)N)N)C(=O)N[C@@H]([C@H](C2=CN=CN2)OC3C(C(C(C(O3)CO)O)O)OC4C(C(C(C(O4)CO)O)OC(=O)N)O)C(=O)N[C@H](C)[C@H]([C@H](C)C(=O)N[C@@H]([C@@H](C)O)C(=O)NCCC5=NC(=CS5)C6=NC(=CS6)C(=O)NCCC[S+](C)C)O [Bleomycin] + O=C(c1cc(Cc2n[nH]c(=O)c3ccccc23)ccc1F)N1CCN(C(=O)C2CC2)CC1 [Olaparib] (partner 8 µM)
Particulars: main component drawn. In a few lines:
as §1

Compound in the assay “Etoposide + Dasatinib”: COc1cc([C@@H]2c3cc4c(cc3[C@@H](O[C@@H]3O[C@@H]5CO[C@@H](C)O[C@H]5[C@H](O)[C@H]3O)[C@H]3COC(=O)[C@H]23)OCO4)cc(OC)c1O [Etoposide] + Cc1nc(Nc2ncc(C(=O)Nc3c(C)cccc3Cl)s2)cc(N2CCN(CCO)CC2)n1 [Dasatinib] (partner 0.075 µM)
In a few lines:
as §1

As to UMC-11, the relative viability in the assay with Bleomycin + Navitoclax (first compound 0.01 µM) was 0.376; with Bleomycin + Navitoclax (first compound 0.03162 µM) it was 0.264; with Bleomycin + Navitoclax (first compound 0.1 µM), 0.286; in the assay with Bleomycin + Navitoclax (first compound 0.3162 µM) it was 0.22; in the assay with Bleomycin + Navitoclax (first compound 1 µM) it was 0.205; in the assay with Bleomycin + Pictilisib (first compound 0.01 µM), 0.842. Besides, the relative viability with Bleomycin + Pictilisib (first compound 0.03162 µM) stood at 0.661; in the assay with Bleomycin + Pictilisib (first compound 0.1 µM) it was 0.827; in the assay with Bleomycin + Pictilisib (first compound 0.3162 µM) it was 0.66; in the assay with Bleomycin + Pictilisib (first compound 1 µM), 0.577; with Bleomycin + Olaparib (first compound 0.01 µM), 0.36; with Bleomycin + Olaparib (first compound 0.03162 µM), 0.342. Also, the relative viability turned out to be 0.371 in the assay with Bleomycin + Olaparib (first compound 0.1 µM); 0.393 with Bleomycin + Olaparib (first compound 0.3162 µM); 0.271 with Bleomycin + Olaparib (first compound 1 µM); 0.455 with Etoposide + Dasatinib (first compound 0.01 µM); 0.38 with Etoposide + Dasatinib (first compound 0.03162 µM); 0.316 with Etoposide + Dasatinib (first compound 0.1 µM). For the same cell line, the relative viability was 0.38 with Etoposide + Dasatinib (first compound 0.3162 µM) and 0.259 with Etoposide + Dasatinib (first compound 1 µM).

(Values after the supplement of paper PMC10307832.)
